Laboratory results from PMC7575488, “Phase 1 dose-escalation study of a novel oral PI3K/mTOR dual inhibitor, LY3023414, in patients with cancer” (Investigational New Drugs, 2020).

Columns and labels:
tumor xenograft models = settings: cited from earlier work
CYP3A4 = tested on: CYP3A4; set-up: method as in PMID 29636360; settings: drug-drug interaction analysis; cited from earlier work
advanced malignancies = assay: Antitumor activity, tumor response by RECIST v1.1; assay type: in vivo, human
Description: Tumor response was assessed by computed tomography scans or magnetic resonance imaging according to RECIST v1.1 [18] at baseline and thereafter every 6 weeks until patients discontinued from the study. The assessment included all patients who received ≥1 dose of study drug.

[1] = set-up: method as in PMID 29636360; settings: across a wide pH range; cited from earlier work
[2] = Phase 1 dose-escalation: tolerability and safety (DLTs, adverse events, CTCAE v4.0); assay type: in vivo
Description: This was a non-randomized, single-arm, open-label, Phase 1, dose-escalation study of oral LY3023414 in Japanese patients with advanced malignancies. A modified 3 + 3 dose-escalation method was used to evaluate the dose-limiting toxicity (DLT) of LY3023414. Enrollment of 3 patients and 6 patients were planned for dose level 1 (150 mg) and dose level 2 (200 mg), respectively. Dose-escalation decisions were made by agreement between investigators and the sponsor, with a consultation with the Safety Assessment Committee (SAC), as needed. If 2 patients experienced DLTs at any given dose, the sponsor examined safety data and consulted the SAC. Following consultation, the sponsor and investigators decided whether the dose was intolerable or additional patients were to be enrolled to the same or an intermediate dose level for further investigation. If ≥3 patients experienced DLTs at any given dose, the dose was considered intolerable for Japanese patients. No intrapatient dose escalation was allowed.
The study evaluated 2 dose levels, 150 mg or 200 mg LY3023414 monotherapy administered in the morning and evening, approximately 12 h apart. The cycle was of 21 days. […] No dose reductions were allowed during Cycle 1, unless a DLT was reported. Dose reductions were allowed in Cycle 2 and beyond at the discretion of the investigator. Patients were treated until a discontinuation criterion was met.
Tolerability and safety were assessed through clinical and laboratory evaluations at weekly intervals for the first 2 cycles and at least every 2 weeks thereafter. Adverse events (AEs) were graded according to the Common Terminology Criteria for Adverse Events Version 4.0 and coded to Medical Dictionary for Regulatory Activities preferred terms. All patients who received ≥1 dose of the study drug were included in the safety analysis.
A DLT was defined as any AE during Cycle 1 which was possibly related to study treatment with LY3023414 and fulfilled any of the following main criteria: Grade ≥ 3 non-hematological toxicity (except nausea, vomiting, diarrhea, constipation, anorexia, skin rash, or asymptomatic electrolyte abnormality for ≤3 days and responsive to appropriate treatment; transient ≤5 days hyperglycemia; and transient ≤7 days mucositis), Grade 4 hematological toxicity of ≥7 days, Grade 3 thrombocytopenia with Grade ≥ 2 bleeding or febrile neutropenia, requirement of platelet or packed red blood transfusion, and any toxicities requiring dose omissions of >20% of intended doses in Cycle 1. The maximum tolerated dose was defined as the highest dose of LY3023414 not causing a DLT in more than 33% of patients.

[3] = cited from earlier work
[4] = tested on: PI3K/AKT/mTOR downstream pathway; set-up: method as in PMID 27439478; settings: in vitro; cited from earlier work

## CO[C@@H](C)Cn1c(=O)n(C)c2cnc3ccc(-c4cncc(C(C)(C)O)c4)cc3c21 [LY3023414]
Tumor xenograft models
  Antitumor activity: potent antitumor activity
CYP3A4
  Inhibition of the metabolic clearance of drugs metabolized through CYP3A4: weak inhibitor
Advanced malignancies; 150 mg
  Best overall response of stable disease: 3 patients
Advanced malignancies; 200 mg
  Best overall response of stable disease: 2 patients
Advanced malignancies; 200 mg BID
  Progressive disease as best response: 4 patients
Advanced malignancies; 5 of 9 evaluable patients
  Disease control rate: 55.6%
Advanced malignancies; 9 evaluable patients, RECIST v1.1
  Complete response (CR) or partial response (PR): No complete response (CR) or partial response (PR)
Advanced malignancies; both dose levels, 9 evaluable patients
  Best overall response of stable disease: 5 patients
[1]
  Solubility: good solubility
[2]; BID dosing, Japanese patients
  Maximum tolerated dose: 200 mg
[2]; due to AEs or any other reason
  Fatal events: no fatal events
[2]; human, in vivo
  ALT increased, AE possibly related to study drug: 3 (25.0) n (%)
  AST increased, AE possibly related to study drug: 3 (25.0) n (%)
  Anemia, AE possibly related to study drug: 5 (41.7) n (%)
  Appetite decreased, AE possibly related to study drug: 7 (58.3) n (%)
  Blood creatinine increased, AE possibly related to study drug: 4 (33.3) n (%)
  Diarrhea, AE possibly related to study drug: 5 (41.7) n (%)
  Drug-related Grade 4 or 5 AEs: No drug-related Grade 4 or 5 AEs
  Fatigue, AE possibly related to study drug: 4 (33.3) n (%)
  Hyperglycemia, AE possibly related to study drug: 4 (33.3) n (%)
  Hypokalemia, AE possibly related to study drug: 2 (16.7) n (%)
  Hypophosphatemia, AE possibly related to study drug: 4 (33.3) n (%)
  Hypotension, AE possibly related to study drug: 2 (16.7) n (%)
  Nausea, AE possibly related to study drug: 8 (66.7) n (%)
  Patients with at least 1 dose adjustment: 33.3%
  Patients with serious AEs: 3 patients
  Platelet count decreased, hematological AE possibly related to study drug: 5 (41.7) n (%)
  Proteinuria, AE possibly related to study drug: 4 (33.3) n (%)
  Pruritis, AE possibly related to study drug: 3 (25.0) n (%)
  Pyrexia, AE possibly related to study drug: 2 (16.7) n (%)
  Rash, AE possibly related to study drug: 3 (25.0) n (%)
  Stomatitis, AE possibly related to study drug: 9 (75.0) n (%)
  Vomiting, AE possibly related to study drug: 4 (33.3) n (%)
  WBC count decreased, hematological AE possibly related to study drug: 2 (16.7) n (%)
  Weight decreased, AE possibly related to study drug: 2 (16.7) n (%)
  anemia, related AE Grade ≥ 3, patients: 16.7%
  anemia, treatment-related AE, patients: 41.7%
  decreased appetite, treatment-related AE, patients: 58.3%
  decreased platelet count, treatment-related AE, patients: 41.7%
  decreased weight, treatment-related AE, patients: 16.7%
  decreased white blood cell count, treatment-related AE, patients: 16.7%
  diarrhea, treatment-related AE, patients: 41.7%
  fatigue, treatment-related AE, patients: 33.3%
  hyperglycemia, related AE Grade ≥ 3, patients: 16.7%
  hyperglycemia, treatment-related AE, patients: 33.3%
  hypokalemia, treatment-related AE, patients: 16.7%
  hypophosphatemia, related AE Grade ≥ 3, patients: 16.7%
  hypophosphatemia, treatment-related AE, patients: 33.3%
  hypotension, treatment-related AE, patients: 16.7%
  increased alanine aminotransferase, treatment-related AE, patients: 25.0%
  increased aspartate aminotransferase, treatment-related AE, patients: 25.0%
  increased blood creatinine, treatment-related AE, patients: 33.3%
  nausea, treatment-related AE, patients: 66.7%
  proteinuria, treatment-related AE, patients: 33.3%
  pruritus, treatment-related AE, patients: 25.0%
  pyrexia, treatment-related AE, patients: 16.7%
  rash, treatment-related AE, patients: 25.0%
  stomatitis, related AE Grade ≥ 3, patients: 16.7%
  stomatitis, treatment-related AE, patients: 75.0%
  vomiting, treatment-related AE, patients: 33.3%
[2]; in vivo
  Dose-limiting toxicities (DLTs): No DLTs
  Patients with at least 1 AE considered possibly related to the study drug: All patients
[3]; 200-mg dose, global study
  Frequency of stomatitis: 33.3%
[3]; global Phase 1 study
  Disease control rate: 34.0%
[3]; global study
  Interstitial lung disease (ILD): None of the patients experienced ILD
[3]; human, in vivo
  Safe and tolerable dose as monotherapy (global recommended dose): up to 200 mg
[4]
  Inhibition of phosphorylation of the PI3K/AKT/mTOR downstream pathway: dose-dependent inhibition
